Assay results as given in article PMC10353187, “Discovery of a new potent oxindole multi-kinase inhibitor among a series of designed 3-alkenyl-oxindoles with ancillary carbonic anhydrase inhibitory activity as antiproliferative agents” (BMC Chemistry, 2023).

Key:
IGROV1 = assay: NCI-60 single-dose antiproliferative assay (SRB); assay type: cell-based; details: Homo sapiens, IGROV-1; 10 μM single dose; IGROV1, Ovarian Cancer; read-out: Cell Growth inhibition Percent
Summary of the method: (§1)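 Plating at 5000–40,000 cells/well by doubling time; 24 h preincubation; a time-zero plate fixed at drug addition. Compound added at 10 µM final, incubated 48 h. Protein stained with SRB, measured at 515 nm, and GI% derived from Tz, C and Ti.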

RXF 393 = assay: NCI-60 single-dose antiproliferative assay (SRB); assay type: cell-based; details: Homo sapiens; 10 μM single dose; RXF 393, Renal cancer; read-out: Cell Growth inhibition Percent
Summary of the method: as §1

UO-31 = assay: NCI-60 single-dose antiproliferative assay (SRB); assay type: cell-based, human; details: UO-31, Renal cancer; for inhibition at 10 µM: Homo sapiens, UO-31, 10 μM single dose, read-out: Cell Growth inhibition Percent
Protocol: (§2) From the newly synthesized compounds, eleven compounds (4c, 4d, 5, 9a, 9b, 11a, 11b, 13b, 13c, 15b, and 15c) were selected by the National Cancer Institute (NCI) Developmental Therapeutics Program (DTP), Bethesda, Maryland, USA for the in vitro anti-proliferative activity evaluation. The selected compounds were examined at 10 μM dose against the NCI 60-cell line panel. This panel consists of nine cell line groups of leukemia, non-small cell lung carcinoma (NSCLC), melanoma, colon, CNS, ovarian, renal, prostate, and breast cancers. The results are reported as mean-graph of the percent growth relative to control and presented as percentage growth inhibition (GI%), furthermore, mean GI% of each compound over all panel cell lines was calculated (Table 1; Additional file 1; S3: In vitro biological activity).
(§3) From the newly synthesized compounds, eleven compounds were selected by the National Cancer Institute (NCI) Developmental Therapeutics Program (DTP), Bethesda, Maryland, USA for the in vitro anti-proliferative activity evaluation (For further details see supplementary materials).
(§4) NCI In-vitro Cancer Screening is a two-phase procedure that starts with the assessment of all compounds against the sixty NCI cell line panel depicting leukemia, NSCLC, CNS cancer, melanoma, prostate cancer, breast cancer, renal cancer, colon cancer and ovarian cancer cell lines at a single point of 10μM. The output from the single-dose screen is reportable as a mean graph.
(§5) The human tumor cell lines of the cancer screening panel were grown in RPMI 1640 medium containing 5% fetal bovine serum and 2 mM L-glutamine. For a typical screening experiment, cells were inoculated into 96 well microtiter plates in […] at plating densities ranging from 5000 to 40,000 cells/well depending on the doubling time of individual cell lines. After cell inoculation, the microtiter plates were incubated at 37 °C, 5% CO2, 95% air and 100% relative humidity for 24 h prior to addition of experimental drugs. After 24 h, two plates of each cell line were fixed in situ with trichloroacetic acid (TCA), to represent a measurement of the cell population for each cell line at the time of drug addition (Tz). Experimental drugs were solubilized in dimethyl sulfoxide at 400-fold the desired final maximum test concentration and stored frozen prior to use. At the time of drug addition, an aliquot of frozen concentrate was thawed and diluted to twice the desired final maximum test concentration with complete medium containing 50 µg/ml gentamicin. Aliquot of 100 µl of the drug dilution was added to the appropriate microtiter wells already containing 100 µl of medium, resulting in the required final drug concentration (10 µM). Triplicate wells were prepared for each individual dose. Following drug addition, the plates were incubated for an additional 48 h at 37 °C, 5% CO2, 95% air, and 100% relative humidity. For adherent cells, the assay was terminated by the addition of cold TCA. Cells were fixed in situ by the gentle addition of 50 µl of cold 50% (w/v) TCA (final concentration, 10% TCA) and incubated for 60 min at 4 °C. The supernatant was discarded, and the plates were washed five times with tap water and air dried. Sulforhodamine B (SRB) solution (100 µl) at 0.4% (w/v) in 1% acetic acid was added to each well, and plates were incubated for 10 min at room temperature. After staining, unbound dye was removed by washing five times with 1% acetic acid and the plates were air dried. Bound stain was subsequently solubilized with 10 mM trizma base, and the absorbance was read on an automated plate reader at a wavelength of 515 nm. For suspension cells, the methodology was the same except that the assay was terminated by fixing settled cells at the bottom of the wells by gently adding 50 µl of 80% TCA (final concentration, 16% TCA). […]

NCI 60 cancer cell lines = assay: NCI-60 single-dose antiproliferative assay, mean over panel; assay type: cell-based; details: Homo sapiens; 10 μM single dose; mean over all NCI panel cell lines; read-out: MEAN % Growth inhibition
Protocol: as §2, §3, §4, §5

hCA I = hCA I (Homo sapiens, UniProt P00915); assay: Stopped flow CO2 hydrase assay
hCA I, sequence (P00915 whole entry): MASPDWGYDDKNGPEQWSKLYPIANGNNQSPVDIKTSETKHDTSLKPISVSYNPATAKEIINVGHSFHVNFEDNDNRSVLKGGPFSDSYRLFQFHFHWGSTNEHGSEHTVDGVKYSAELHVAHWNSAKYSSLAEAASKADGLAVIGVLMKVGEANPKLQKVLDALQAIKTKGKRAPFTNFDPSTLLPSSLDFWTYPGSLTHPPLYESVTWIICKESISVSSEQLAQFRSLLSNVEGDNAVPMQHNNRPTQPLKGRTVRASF

hCA II = hCA II (Homo sapiens, UniProt P00918); assay: Stopped flow CO2 hydrase assay
hCA IX = hCA IX (Homo sapiens, UniProt Q16790); assay: Stopped flow CO2 hydrase assay; details: for Selectivity ratio I/IX: Ki hCA I / Ki hCA IX; for Selectivity ratio II/IX: Ki hCA II / Ki hCA IX
hCA XII = hCA XII (Homo sapiens, UniProt O43570); assay: Stopped flow CO2 hydrase assay; details: for Selectivity ratio I/XII: Ki hCA I / Ki hCA XII; for Selectivity ratio II/XII: Ki hCA II / Ki hCA XII
hCA XII, sequence (O43570 25-354): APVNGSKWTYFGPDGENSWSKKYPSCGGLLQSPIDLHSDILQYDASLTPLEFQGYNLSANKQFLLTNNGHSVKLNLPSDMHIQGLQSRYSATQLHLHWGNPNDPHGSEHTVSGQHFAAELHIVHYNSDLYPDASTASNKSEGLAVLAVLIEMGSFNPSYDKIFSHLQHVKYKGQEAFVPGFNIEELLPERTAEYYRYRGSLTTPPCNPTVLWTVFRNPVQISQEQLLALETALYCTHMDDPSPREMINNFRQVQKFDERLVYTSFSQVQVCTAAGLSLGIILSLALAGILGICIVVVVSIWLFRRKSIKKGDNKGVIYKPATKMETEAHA

NCI-H522 = assay: NCI-60 single-dose antiproliferative assay (SRB); assay type: cell-based; details: Homo sapiens; 10 μM single dose; NCI-H522, Non-small cell lung cancer; read-out: Cell Growth inhibition Percent
Summary of the method: as §1

OVCAR-8 = assay: NCI-60 single-dose antiproliferative assay (SRB); assay type: cell-based; details: Homo sapiens; 10 μM single dose; OVCAR-8, Ovarian Cancer; read-out: Cell Growth inhibition Percent
Summary of the method: as §1

SF-295 = assay: NCI-60 single-dose antiproliferative assay (SRB); assay type: cell-based; details: Homo sapiens; 10 μM single dose; SF-295, CNS cancer; read-out: Cell Growth inhibition Percent
Summary of the method: as §1

SK-OV-3 = assay: NCI-60 single-dose antiproliferative assay (SRB); assay type: cell-based; details: Homo sapiens; 10 μM single dose; SK-OV-3, Ovarian Cancer; read-out: Cell Growth inhibition Percent
Summary of the method: as §1

T-47D = assay: NCI-60 single-dose antiproliferative assay (SRB); assay type: cell-based; details: Homo sapiens, T47D, 10 μM single dose, Breast cancer, read-out: Cell Growth inhibition Percent
Summary of the method: as §1

U251 = assay: NCI-60 single-dose antiproliferative assay (SRB); assay type: cell-based; details: Homo sapiens, U-251; 10 μM single dose; U251, CNS cancer; read-out: Cell Growth inhibition Percent
Summary of the method: as §1

MDA-MB-435 = assay: NCI-60 single-dose antiproliferative assay (SRB); assay type: cell-based; details: Homo sapiens; 10 μM single dose; MDA-MB-435, Melanoma; read-out: Cell Growth inhibition Percent
Summary of the method: as §1

HCT-116 = assay: NCI-60 single-dose antiproliferative assay (SRB); assay type: cell-based; details: Homo sapiens; 10 μM single dose; HCT-116, Colon cancer; read-out: Cell Growth inhibition Percent
Summary of the method: as §1

HCT-15 = assay: NCI-60 single-dose antiproliferative assay (SRB); assay type: cell-based; details: Homo sapiens; 10 μM single dose; HCT-15, Colon cancer; read-out: Cell Growth inhibition Percent
Summary of the method: as §1

MDA-MB-468 = assay: NCI-60 single-dose antiproliferative assay (SRB); assay type: cell-based; details: Homo sapiens; 10 μM single dose; MDA-MB-468, Breast cancer; read-out: Cell Growth inhibition Percent
Summary of the method: as §1

SMILES	inhibition at 10 µM (IGROV1)	inhibition at 10 µM (RXF 393)	inhibition at 10 µM (UO-31)	inhibition at 10 µM (NCI 60 cancer cell lines)	Ki (hCA I)	Ki (hCA II)	Ki (hCA IX)	Ki (hCA XII)	inhibition at 10 µM (NCI-H522)	inhibition at 10 µM (OVCAR-8)	inhibition at 10 µM (SF-295)	inhibition at 10 µM (SK-OV-3)	inhibition at 10 µM (T-47D)	inhibition at 10 µM (U251)	Selectivity ratio I/IX (hCA IX)	Selectivity ratio II/IX (hCA IX)	Selectivity ratio I/XII (hCA XII)	Selectivity ratio II/XII (hCA XII)	inhibition at 10 µM (MDA-MB-435)	inhibition at 10 µM (HCT-116)	also measured
O=C1Nc2ccccc2C1=CNc1ccc(C(=O)O)cc1 [Compound 4c, 4-{[(2-Oxoindolin-3-ylidene)methyl]amino}benzoic acid]	24.1%	29.6%	49.7%	3.71%	6.32 µM	8.67 µM	> 10 µM	> 10 µM													
NS(=O)(=O)c1nnc(NC=C2C(=O)Nc3ccccc32)s1 [Compound 4d, 5-{[(2-Oxoindolin-3-ylidene)methyl]amino}-1,3,4-thiadiazole-2-sulfonamide]	23.5%		27.5%		0.0084 µM	0.0039 µM	0.0842 µM	0.0087 µM	0.13%	0.12%	0.84%	0.47%	14.8%	0.06%	0.100	0.046	0.966	0.448			
NS(=O)(=O)N/C=C1/C(=O)Nc2ccccc21 [Compound 5, 3-(sulfamidmethylene)indoline-2-one]	18.6%		34.6%		6.35 µM	0.913 µM	0.208 µM	0.0424 µM	5.36%			5.43%	7.19%	2.06%	30.48	4.39	149.65	21.54			
O=C1Nc2ccccc2C1=CNc1ccc(C(=O)Nc2ccc(S(=O)(=O)Nc3ncccn3)cc2)cc1 [Compound 9b, 4-{[(2-Oxoindolin-3-ylidene)methyl]amino}-N-{4-[N-(pyrimidin-2-yl)sulfamoyl]phenyl}benzamide]	21.3%		43.7%	2.55%	> 10 µM	> 10 µM	> 10 µM	> 10 µM													
NS(=O)(=O)c1ccc(NCc2ccc(NC=C3C(=O)Nc4ccccc43)cc2)cc1 [Compound 11a, 4-{[4-({[2-Oxoindolin-3-ylidene]methyl}amino)benzyl]amino}benzenesulfonamide]	32.7%	26.2%	44%	2.58%	0.321 µM	0.746 µM	0.217 µM	0.0786 µM					6.76%		1.48	3.43	4.08	9.50	2.04%		
O=C1Nc2ccccc2C1=CNc1ccc(CNc2ccc(S(=O)(=O)Nc3ncccn3)cc2)cc1 [Compound 11b, 4-{[4-({[2-Oxoindolin-3-ylidene]methyl}amino)benzyl]amino}-N-(pyrimidin-2-yl)benzenesulfonamide]	23.5%		39.3%	7.38%	9.11 µM	2.66 µM	7.86 µM	8.57 µM	6.92%	1.39%	0.84%		27.5%	14.4%	1.16	0.34	1.06	0.31	32%	13.4%	inhibition at 10 µM (HCT-15): 9.43%; inhibition at 10 µM (MDA-MB-468): 7.66%; Cell Growth inhibition Percent (UO-31; 10 μM single dose): 39.47%
O=C1Nc2ccccc2C1=CNc1ccc(C(=O)C=CNc2nccs2)cc1 [Compound 13c, 3-{[(4-{3-[Thiazol-2-ylamino]acryloyl}phenyl)amino]methylene}indolin-2-one]	5.94%		16.2%	3.28%	> 10 µM	> 10 µM	> 10 µM	> 10 µM	2.31%			3.75%							1.15%	21.9%	inhibition at 10 µM (HCT-15): 12%; inhibition at 10 µM (MDA-MB-468): 23.5%
O=C(Nc1ccc(NC=C2C(=O)Nc3ccccc32)cc1)Nc1nccs1 [Compound 15c, 1-{4-[((2-Oxoindolin-3-ylidene)methyl)amino]phenyl}-3-(thiazol-2-yl)urea]	70.5%	120%	51.6%	61.8%	> 10 µM	> 10 µM	> 10 µM	> 10 µM		44.3%	29.4%	45%	58.8%	58%					153%	73%	inhibition at 10 µM (HCT-15): 71%; inhibition at 10 µM (MDA-MB-468): 102%
